Results: publication PMC7551591, “The Effect of Resveratrol or Curcumin on Head and Neck Cancer Cells Sensitivity to the Cytotoxic Effects of Cisplatin” (Nutrients, 2020)

Experiments:
Assay type in all cases: cell-based, human
PE/CA-PJ49 tumor cells [1] = assay: MTT drug sensitivity (viability) assay, tumor cells; details: PE/CA-PJ49, 24 h
Procedure: (§1) The MTT assay is based on the ability of viable cells to reduce the reagent 3-(4,5-dimethylthiazol-2-yl)-2,5-diphenyltetrazolium bromide to colored formazan compounds [48]. Because the transformation is only possible in viable cells, the amount of blue formazan is proportional to the number of viable cells and thus, a linear dependence exists between cell activity and absorbance. Cells were seeded in triplicate in 96-well plates at a density of 5000 cells/well, incubated at 37 °C for 24 h. […] After the incubation period, 20 μL MTT (5 mg/mL in PBS) was added and further incubated for 4 h. The supernatant was removed, and the formazan product was analyzed spectrophotometrically (570 nm) after dissolution in DMSO. Wells without cells serve as a blank, and their absorbance was subtracted from the other results. Untreated cells were used as control and their viability was assumed as 100%. Results were expressed as mean values of three determinations ± standard deviation (SD). Data are presented as percent of cell viability and compared to untreated [Viability% = (T − B)/(U − B) × 100, {where T = absorbance of treated cells; U = absorbance of untreated cells, B = absorbance of blank}]. Once percent viability was obtained, the drug response curve was generated, and inhibitory concentration (IC50 and IC25) was calculated using GraphPad Prism version 5.01 [49].
(§2) SI values of more than 2 were considered as indicative of high selectivity.
(§3) The anticancer cytotoxic activity in vitro was evaluated by the MTT assay. […] The most widely used and informative measure of a drug’s efficacy is IC50-the half-maximal inhibitory concentration. IC50 was determined at half of the difference between the maximum (plateau) and minimum absorbance values, by plotting the absorbance value at 570 nm (Y axis) versus the concentration of the compound analysed (X axis). The IC50 values were reported as a mean of three independent experiments ± standard deviation (S.D.).

HUVEC normal cells [2] = assay: MTT drug sensitivity (viability) assay, normal cells; details: 24 h
Procedure: as §1, §2, §3

[3] = test system: p21 protein (CIP1/CDKN1A) expression in HUVEC; assay: Total p21 protein ELISA in cell lysates, normal cells; details: 24 h
Procedure: (§4) After incubation, cells were washed twice with ice-cold PBS, scraped, pelleted and lysed in RIPA buffer (Pierce) supplemented with protease inhibitor cocktail (Roche) and phosphatase inhibitor (Roche) for 30 min on ice. The lysates were transfered into microcentrifuge tubes and centrifuged at 14,000× g for 5 min at 4 °C followed by sonication (10–15 s × 3). The supernatants were collected into clean microcentrifuge tubes and stored at −80 °C. Lysates protein concentration were quantified by BCA protein assay kit (Thermo Scientific) and aliquots of 50 μg of total cell lysate were used for ELISA assay.
(§5) DuoSetR IC ELISA-Human Total p21/CIP1/CDKN1A(: DYC1047-2) was purchased from R&D Systems Inc. and contains the basic components required for the development of sandwich ELISAs to measure human p21 protein also known as CIP1 and CDKN1A in cell lysates. An immobilized capture antibody specifically binds human p21. After washing away unbound material, a biotinylated detection antibody specific for human p21 is used to detect the captured protein, utilizing a standard Streptavidin-HRP format. All experiments were performed in triplicates and absorbance was measured at λ = 450 nm using a Dynex plate reader.
(§6) In cancer development and evolution p21 protein might acts as an oncogene or tumor suppressor and for this reason it could be an important player in processes such as the cancer aggressiveness or the response to chemotherapy. In this study, using ELISA assay we analyzed the expression level of p21 in the tumor cells (PE-CA/PJ49) compared to a normal cells (HUVEC).

[4] = test system: p21 protein (CIP1/CDKN1A) expression in PE/CA-PJ49; assay: Total p21 protein ELISA in cell lysates, tumor cells; details: 24 h
Procedure: as §4, §5, §6

PE/CA-PJ49 tumor cells [5] = assay: Annexin V-FITC/PI apoptosis flow cytometry, tumor cells; details: 24 h
Procedure: (§7) The apoptosis assay was carried out with the Annexin V-FITC kit using the manufacturer’s (BD Pharmingen) protocol. Treated and untreated 1 × 10^6 cells/mL were resuspended in cold binding buffer and staining simultaneously with 5 μL FITC-Annexin V (green fluorescence) and 5 μL propidium iodide (PI) in the dark, at room temperature for 15 min. Then, 400μL of Annexin V binding buffer was added and 10,000 cells/sample were acquired using a BD Canto II flow cytometer. The analysis was performed using DIVA 6.2 software in order to discriminate viable cells (FITC^−PI^−) from necrotic cells […] and early apoptosis (FITC^+PI^−) from late apoptosis.
(§8) Apoptosis can be seen as an efficient method of preventing malignant transformation, as it ensures the removal of cells which present with genetic alterations. Deficient apoptosis can promote the development of cancer, both through the accumulation of cells found during division and the blocking of the removal of cells with high malignant potential genetic variations. The factors which determine the cells to follow one of three possible pathways are not yet known – the start of apoptosis after cellular injury, the repair of the lesion or the continuation of the cellular cycle. Many therapeutical agents have anti-tumoral effects generated by their capacity to activate the apoptotic process. […] The flow cytometric analysis was performed using DIVA 6.2 software and allowed to discriminate viable cells (FITC^−PI^− = Q3) from necrotic cells (FITC^−PI^+ = Q1) and early apoptosis (FITC^+PI^− = Q4) from late apoptosis (FITC^+PI^+ = Q2).

HUVEC normal cells [6] = assay: Annexin V-FITC/PI apoptosis flow cytometry, normal cells; details: 24 h; for Apoptoza Tarzie = Q2 (%): late apoptosis; for Apoptoza Totală = Q2+Q4 (%): total apoptosis
Procedure: as §7, §8

PE/CA-PJ49 tumor cells [7] = assay: Cell cycle phase distribution by PI flow cytometry, tumor cells; details: 24 h, CisPt 20 μM
Procedure: (§9) For analysis of cell-cycle distribution, the cells were collected after treatment, fixed with 70% ethanol for at least one hour at 4 °C. The cells were stained with propidium iodide (PI) an agent which intercalates into the major groove of double-stranded DNA and produces a highly fluorescent adduct that can be excited at 488 nm with a broad emission around 600 nm. Since PI can also bind to double-stranded RNA, it is necessary to treat the cells with RNase for optimal DNA resolution. Cells (1×10^6 cells/mL) were washed in PBS and centrifuge at 300× g, 5 min at 4 °C. The pellet of the cells were incubated for 10 min at 37 °C with 0.5 mg/sample RNase A and then was added 10 μg/sample of PI staining solution to cell pellet, mix well and incubated 10 min at 37 °C. The samples stored at 4 °C until analyzed by flow cytometry. A minimum of 20,000 events for each sample were collected using a FACS CantoII flow cytometer and ModFIT software (BectonDickinson) and used to determine the cell cycle phase distribution after debris exclusion.
(§10) The progression through the cell cycle phases induced by treatment were evaluated by flow cytometry using a FACSCanto II flow cytometer. Data analysis were performed using the ModFit 3.2 program which offers the possibility of evaluating the cell cycle phases distribution (G0/G1, S, G2 + M).

HUVEC normal cells [8] = assay: Cell cycle phase distribution by PI flow cytometry, normal cells; details: 24 h
Procedure: as §9, §10

N.N.[Cl][Pt][Cl] [CisPt, cis-diamminedichloroplatinum]
cell viability (MTT) (PE/CA-PJ49 tumor cells [1]; CisPt 5 μM vs untreated cells): significantly affected
cell viability (MTT) (PE/CA-PJ49 tumor cells [1]; CisPt 20 μM vs untreated cells): significantly affected
IC 25 (PE/CA-PJ49 tumor cells [1]; MTT): 3.95 ± 1.2 µM
IC50 (PE/CA-PJ49 tumor cells [1]; MTT): 9.72 ± 1.7 µM
cell viability (MTT) (HUVEC normal cells [2]; CisPt 5 μM vs untreated cells): significantly reduced
cell viability (MTT) (HUVEC normal cells [2]; CisPt 20 μM vs untreated cells): significantly reduced
IC 25 (HUVEC normal cells [2]; MTT): 5.82 ± 1.1 µM
IC50 (HUVEC normal cells [2]; MTT): 20.9 ± 2.1 µM
p21 pg/mL HUVEC ([3]; 5 μM CisPt): 238 pg/mL
p21 pg/mL HUVEC ([3]; 20 μM CisPt): 195 pg/mL
p21 pg/mL PE/CA-PJ49 ([4]; 5 μM CisPt): 1157 pg/mL
p21 pg/mL PE/CA-PJ49 ([4]; 20 μM CisPt): 915 pg/mL
Early Apoptosis = Q4 (%) (PE/CA-PJ49 tumor cells [5]; 5 μM CisPt): 11.3%
Late Apoptosis = Q2 (%) (PE/CA-PJ49 tumor cells [5]; 5 μM CisPt): 1.2%
Necrosis = Q1 (%) (PE/CA-PJ49 tumor cells [5]; 5 μM CisPt): 2.1%
Total Apoptosis = Q2 + Q4 (%) (PE/CA-PJ49 tumor cells [5]; 5 μM CisPt): 12.5%
Early Apoptosis = Q4 (%) (PE/CA-PJ49 tumor cells [5]; 20 μM CisPt): 15.3%
Late Apoptosis = Q2 (%) (PE/CA-PJ49 tumor cells [5]; 20 μM CisPt): 2.1%
Necrosis = Q1 (%) (PE/CA-PJ49 tumor cells [5]; 20 μM CisPt): 1.4%
Total Apoptosis = Q2 + Q4 (%) (PE/CA-PJ49 tumor cells [5]; 20 μM CisPt): 17.4%
Early Apoptosis = Q4 (%) (HUVEC normal cells [6]; 5 μM CisPt): 5.6%
Necrosis = Q1 (%) (HUVEC normal cells [6]; 5 μM CisPt): 1.6%
Early Apoptosis = Q4 (%) (HUVEC normal cells [6]; 20 μM CisPt): 7.7%
Necrosis = Q1 (%) (HUVEC normal cells [6]; 20 μM CisPt): 1.5%
Apoptoza Tarzie = Q2 (%) (HUVEC normal cells [6]; 5 μM CisPt): 0.5%
Apoptoza Tarzie = Q2 (%) (HUVEC normal cells [6]; 20 μM CisPt): 0.5%
Apoptoza Totală = Q2+Q4 (%) (HUVEC normal cells [6]; 5 μM CisPt): 6.1%
Apoptoza Totală = Q2+Q4 (%) (HUVEC normal cells [6]; 20 μM CisPt): 8.2%
G2/M% (PE/CA-PJ49 tumor cells [7]): 27.5%
synthesis phase (S) (HUVEC normal cells [8]; 5 μM CisPt): 29.2%
S% (HUVEC normal cells [8]; CisPt 20 μM): 39.65%
